Experimental data reported in PMC12339163, “Combining Plant Bioactives With Antibiotics for Enhanced Antibiofilm Activity Against Uropathogenic Staphylococcus spp. and Cytotoxicity Evaluation” (Advances in Pharmacological and Pharmaceutical Sciences, 2025).
In brackets after ≈: the same amount, converted by molar mass. Several values for one entry are separate records, joined by “and”; a condition that tells them apart may be missing. Equal values may be shown once. Read-outs that look alike come from different tables or passages of the source.

How the values were obtained:
S. epidermidis = assay: MIC and MBC, broth microdilution; type: cell-based, Staphylococcus epidermidis; conditions: geometric mean, S. epidermidis (n = 3)
Procedure: Seven clinical isolates of Staphylococcus spp. including 2 S. aureus, 3 S. saprophyticus, and 2 S. epidermidis were used. They were isolated from urine samples in our previous study. Two reference strains (S. aureus ATCC1026 and S. epidermidis ATCC35984) obtained from the American Type Culture Collection were also included. They were kept in the mixture of glycerol and Mueller Hinton Broth (MHB) (1:1) at −20°C, and the activation was achieved using the streak technique on Mueller Hinton agar (MHA) medium.
The MICs of ATBs and NPs were determined by the broth microdilution method as previously described. NPs and ATBs were, respectively, prepared at 4096 µg/mL and 512 µg/mL and serially diluted twofold with MHB in a 96-well microplate at a volume of 100 µL. Then, the wells were filled with 100 µL of inoculum (1.5 × 10^6 CFU/mL) to give final concentrations ranging from 1024 µg/mL to 0.5 µg/mL and 128 µg/mL to 0.062 µg/mL of NPs and ATBs, respectively. The microplates were incubated for 24 h at 37°C. Wells containing only bacterial inoculum were used as the negative control. After incubation, a volume of 40 µL of INT solution (0.2 mg/mL) was added to each well, and the microplate was incubated at 37°C for 30 min. Viable bacteria cells change the yellow dye of INT to a pink color. The MIC was considered as the lowest concentration of the sample at which there was no change in the coloration of the medium, corresponding to the complete inhibition of microbial growth.
All tests were performed in triplicate.

S. aureus biofilm [1] = assay: Biofilm inhibition assay (MBIC, MTT); type: cell-based, Staphylococcus aureus; conditions: geometric mean, S. aureus (n = 3); for minimal effective concentration: Staphylococcus aureus, 24 h
Procedure: (§1) The biofilm formation inhibitory activity of NPs and ATBs was carried out according to the method previously described. A total of 100 µL of bacterial inoculum (1.5 × 10^6 CFU/mL) was used, and 100 µL of each sample was added to the microplate to achieve final concentrations ranging from 0.25 µg/mL to 128 µg/mL for ATBs and from 8 µg/mL to 1024 µg/mL for NPs. Then, the microplate was incubated at 37°C for 24 h. After incubation, the plates were gently emptied and washed three times with a phosphate buffer solution at pH 7.2. Then, the MTT solution (0.5 mg/mL) prepared in PBS was introduced into each well, and the microplate was further incubated at 37°C for 24 h. Untreated wells containing bacterial suspension and MHB supplemented with 1% glucose were considered positive controls, and wells containing only MHB+1% glucose without bacteria were used as blanks. After incubation, the MTT solution was aspirated, then 150 µL of DMSO was introduced to dissolve the formazan crystal formed by viable bacteria, and the optical density (OD) was measured at 570 nm using a microplate reader (VERSA-max). The percentage of biofilm inhibition was calculated using the formula below, and the minimal biofilm inhibitory concentration (MBIC) was recorded as the lowest concentration of NPs or ATBs that inhibited 100% of biofilm:(1) % biofilm inhibition=ODcontrol−ODblank−ODtest−ODblank/ODcontrol−ODblank×100.

S. saprophyticus biofilm = assay: Biofilm inhibition assay (MBIC, MTT); type: cell-based, Staphylococcus saprophyticus; conditions: geometric mean, S. saprophyticus (n = 3); for minimal effective concentration: Staphylococcus saprophyticus, 24 h
Procedure: as §1

S. epidermidis biofilm [2] = assay: Biofilm inhibition assay (MBIC, MTT); type: cell-based, Staphylococcus epidermidis; conditions: geometric mean, S. epidermidis (n = 3); for minimal effective concentration: Staphylococcus epidermidis, 24 h
Procedure: as §1

S. aureus biofilm [3] = assay: Biofilm eradication assay (MBEC, MTT); type: cell-based, Staphylococcus aureus; conditions: geometric mean, S. aureus (n = 3); for minimal effective concentration: Staphylococcus aureus, 24 h
Procedure: (§2) The determination of the biofilm eradication potential of NPs and ATBs was performed as previously described. Briefly, 100 µL of bacterial inoculum (1.5 × 10^6 CFU/mL) and 100 µL of MHB + 1% glucose were introduced into the microplate, incubated at 37°C for 24 h, and the microplate was gently emptied and washed three times with PBS. Then, 200 µL of ATBs or NPs at respective concentrations ranging from 8 to 1024 µg/mL and from 16 to 2048 µg/mL were incubated at 37°C for 24 h. Once incubation was completed, the microplate was processed as described above, and the percentage of biofilm eradication was calculated using the formula below. The minimal biofilm eradicating concentration (MBEC) was recorded as the lowest concentration of the test sample that reduces 100% of biofilm:(2) % biofilm eradication=ODcontrol−ODblank−ODtest−ODblank/ODcontrol−ODblank×100.

S. epidermidis biofilm [4] = assay: Biofilm eradication assay (MBEC, MTT); type: cell-based, Staphylococcus epidermidis; conditions: geometric mean, S. epidermidis (n = 3); for minimal effective concentration: Staphylococcus epidermidis, 24 h
Procedure: as §2

[5] = tested on: Staphylococcus aureus biofilm; assay: Checkerboard combination assay, biofilm inhibition; type: cell-based; conditions: for MBIC alone, NPs: natural product alone
Procedure: (§3) The effect of the combination of ATBs with NPs on biofilm formation was evaluated by determining the FICI, as described above for planktonic cells, except that the MHB was supplemented with 1% glucose.
(§4) The lowest MBICs of ATBs or NPs that inhibited metabolic activity in the biofilm were determined as described above. The FICI was used to perform the effect of combination and calculated as follows: FICI: (MBIC of ATBs in combinations/MBIC of ATBs alone) + (MBIC of NP in the combinations/MBIC of NP alone). FICI was interpreted as indicated above.

[6] = tested on: Staphylococcus epidermidis biofilm; assay: Checkerboard combination assay, biofilm inhibition; type: cell-based
Procedure: as §3, §4

[7] = tested on: Staphylococcus saprophyticus biofilm; assay: Checkerboard combination assay, biofilm inhibition; type: cell-based
Procedure: as §3, §4

[8] = tested on: Staphylococcus epidermidis biofilm; assay: Checkerboard combination assay, biofilm eradication; type: cell-based; conditions: for MBEC Alone NPs: natural product alone
Procedure: The effect of the combination of ATBs with NPs on the preformed biofilm was evaluated by determining the FICI, as described above for biofilm formation, with slight modifications. After biofilm formation for 24 h, the plate was gently emptied and washed three times with PBS. Then, 50 µL of ATBs and 50 µL of NPs were introduced to the plate. The final concentration ranges from 0.0625 to 128 µg/mL and from 4 to 512 µg/mL for ATBs and NPs, respectively, and is incubated at 37°C for 24 h. After incubation, the medium was gently removed, and the plate was washed three times with PBS. At the end of the incubation time, the MTT reduction assay was performed, and the MBEC was determined. To assess the effect of the combination, the FICI was calculated and interpreted as described above.

[9] = Staphylococcus epidermidis, antibiotics, read-out: MBC
[10] = Staphylococcus epidermidis, read-out: MIC
[11] = S. aureus, biofilm inhibition, mean
[12] = antibiotic alone, S. aureus biofilm inhibition
[13] = S. epidermidis, biofilm inhibition, mean
[14] = antibiotic alone, S. epidermidis biofilm inhibition
[15] = S. saprophyticus, biofilm inhibition, mean
[16] = antibiotic alone, S. saprophyticus biofilm inhibition
[17] = S. epidermidis biofilm eradication, antibiotic alone, mean MBEC
[18] = S. epidermidis, biofilm eradication, mean
[19] = Staphylococcus epidermidis, natural products, read-out: MBC

Row | SMILES | MIC (S. epidermidis; [10]) [µg/mL] | MBC (S. epidermidis; [9]) [µg/mL] | minimal effective concentration (S. aureus biofilm [1]) [µg/mL] | minimal effective concentration (S. saprophyticus biofilm) [µg/mL] | minimal effective concentration (S. epidermidis biofilm [2]) [µg/mL] | minimal effective concentration (S. aureus biofilm [3]) [µg/mL] | minimal effective concentration (S. epidermidis biofilm [4]) [µg/mL] | MBIC alone, ATB [5, 12] [µg/mL] | MBIC alone, ATB [6, 13] [µg/mL] | MBIC alone, ATB [6, 14] [µg/mL] | MBIC alone, ATB [7, 15] [µg/mL] | MBIC alone, ATB [7, 16] [µg/mL] | MBEC Alone ATB [8, 17] [µg/mL] | MBC (S. epidermidis; [19]) [µg/mL] | other results
1 | C=CC1=C(C(=O)O)N2C(=O)[C@@H](NC(=O)/C(=N\OCC(=O)O)c3csc(N)n3)[C@H]2SC1 [Cefixime, cefixime] | 107 (≈ 235 µM) | > 128 | 64 | 48 | 64 | 42.7 | 42.7 | 64 | – | 64 | – | 48 | 42.66 | – | –
2 | Cc1nnc(SCC2=C(C(=O)O)N3C(=O)[C@@H](NC(=O)Cn4cnnn4)[C@H]3SC2)s1 [Cefazolin, cefazolin] | 42.7 (≈ 93.9 µM) | 139 (≈ 305 µM) | 4.66 | 8.53 | 8.66 | 42.7 | 10.7 | 4.66 | 8.66 | 8.66 | 8.33 | 8.33 | 10.66 | – | MBIC alone, ATB [5, 11]: 4.66 µg/mL; MBEC Alone ATB [8, 18]: 42.66 µg/mL
3 | NC[C@H]1O[C@H](O[C@H]2[C@H](O)[C@@H](O[C@H]3O[C@H](CO)[C@@H](O)[C@H](N)[C@H]3O)[C@H](N)C[C@@H]2N)[C@H](O)[C@@H](O)[C@@H]1O [Kanamycin, kanamycin] | – | – | – | – | – | – | – | 1.83 | 24.66 | – | 4.08 | 4.083 | 13.33 | – | MBC (S. epidermidis; antibiotics): 12 µg/mL (≈ 24.8 µM); MIC (S. epidermidis): 7.33 µg/mL (≈ 15.1 µM); MBIC (S. aureus biofilm [1]): 1.08 µg/mL; MBIC (S. saprophyticus biofilm): 4.08 µg/mL; MBIC (S. epidermidis biofilm [2]): 24.66 µg/mL; MBEC (S. aureus biofilm [3]): 14.66 µg/mL; MBEC (S. epidermidis biofilm [4]): 13.33 µg/mL; MBIC alone, ATB ([6]; antibiotic alone, S. epidermidis biofilm inhibition, listed as Kan): 24.66 µg/mL and 43.33 µg/mL
4 | O=c1c(O)c(-c2ccc(O)c(O)c2)oc2cc(O)cc(O)c12 [Quercetin, quercetin] | 512 (≈ 1690 µM) | – | 512 | 427 | 512 | 128 | 299 | – | – | – | – | – | – | > 1020 | MBIC alone, NPs ([5]; S. aureus biofilm inhibition, listed as Que): 426.66 µg/mL and 512 µg/mL and 362.66 µg/mL; MBIC alone, NPs ([6]; natural product alone, S. epidermidis biofilm inhibition, listed as Que): 512 µg/mL and 384 µg/mL; MBIC alone, NPs ([7]; natural product alone, S. saprophyticus biofilm inhibition, listed as Que): 426.66 µg/mL and 512 µg/mL
5 | COc1cc(/C=C/C(=O)CC(=O)/C=C/c2ccc(O)c(OC)c2)ccc1O [Curcumin, curcumin] | 384 (≈ 1040 µM) | – | 107 | 107 | 128 | 149 | 107 | – | – | – | – | – | – | > 1020 | MBIC alone, NPs [6, 13]: 128 µg/mL; MBIC alone, NPs ([6]; natural product alone, S. epidermidis biofilm inhibition): 128 µg/mL; MBIC alone, NPs [7, 15]: 106.66 µg/mL; MBEC Alone NPs ([8]; S. epidermidis biofilm eradication, mean MBEC, listed as Cur): 106.66 µg/mL and 128 µg/mL
6 | COc1ccc2cc3[n+](cc2c1OC)CCc1cc2c(cc1-3)OCO2 [Berberine, berberine] | 213 | – | 171 | 85.3 | – | 149 | 171 | – | – | – | – | – | – | > 1020 | MBIC alone, NPs ([5]; S. aureus biofilm inhibition): 170.66 µg/mL; MBIC alone, NPs [7, 15]: 106.66 µg/mL; MBIC alone, NPs ([7]; natural product alone, S. saprophyticus biofilm inhibition, listed as Ber): 74.66 µg/mL and 85.33 µg/mL and 106.66 µg/mL; MBEC Alone NPs ([8]; S. epidermidis biofilm eradication, mean MBEC, listed as Ber): 170.66 µg/mL and 149.33 µg/mL and 213.33 µg/mL

Continued, in another order:

Row | MIC (S. epidermidis; [10]) [µg/mL] | SMILES | MBC (S. epidermidis; [9]) [µg/mL] | minimal effective concentration (S. aureus biofilm [1]) [µg/mL] | minimal effective concentration (S. saprophyticus biofilm) [µg/mL] | minimal effective concentration (S. epidermidis biofilm [2]) [µg/mL] | minimal effective concentration (S. aureus biofilm [3]) [µg/mL] | minimal effective concentration (S. epidermidis biofilm [4]) [µg/mL] | MBIC alone, ATB [5, 12] [µg/mL] | MBIC alone, ATB [6, 13] [µg/mL] | MBIC alone, ATB [6, 14] [µg/mL] | MBIC alone, ATB [7, 15] [µg/mL] | MBIC alone, ATB [7, 16] [µg/mL] | MBEC Alone ATB [8, 17] [µg/mL] | MBC (S. epidermidis; [19]) [µg/mL] | other results
7 | 1.16 (≈ 1.98 µM) | NCC[C@H](O)C(=O)N[C@@H]1C[C@H](N)[C@@H](O[C@H]2O[C@H](CN)[C@@H](O)[C@H](O)[C@H]2O)[C@H](O)[C@H]1O[C@H]1O[C@H](CO)[C@@H](O)[C@H](N)[C@H]1O [Amikacin, amikacin] | > 128 | 1.83 | 2.08 | 3.08 | 13.3 | 21.3 | 1.83 | 3.08 | 3.08 | 2.08 | 2.08 | 21.33 | – | MBIC alone, ATB [5, 11]: 1.83 µg/mL
8 | 7 (≈ 15.8 µM) | C[C@H]1c2cccc(O)c2C(=O)C2=C(O)[C@]3(O)C(=O)C(C(N)=O)=C(O)[C@@H](N(C)C)[C@@H]3[C@@H](O)[C@@H]21 [Doxycycline, doxycycline] | 8 (≈ 18 µM) | 2.16 | 0.5 | 3.08 | 16 | 16 | 2.16 | – | – | 0.5 | 0.5 | 16 | – | MBIC alone, ATB ([6]; antibiotic alone, S. epidermidis biofilm inhibition, listed as Dox): 3.08 µg/mL and 3.41 µg/mL; MBEC Alone ATB [8, 18]: 16 µg/mL
